In ChEMBL document CHEMBL3045195, “Comparison of the activity of non-steroidal ecdysone agonists between dipteran and lepidopteran insects, using cell-based EcR reporter assays” (Pest Manag Sci, 2010):
The source made the active and inactive calls. The rule behind the calls is not given here.

Columns and labels:
[1] = molecular target: T1, Ecdysone receptor (Drosophila melanogaster) (UniProt P34021+P20153); experiment: Agonist activity at ecdysone receptor in Drosophila melanogaster S2 cells at 100 uM after 24 hr by luciferase reporter gene assay relative to 20-hydroxyecdysone; assay type: cell-based
Ecdysone receptor [2] = molecular target: T2, Ecdysone receptor (Bombyx mori, UniProt P49881); experiment: (§1) Agonist activity at ecdysone receptor in Bombyx mori Bm5 cells after 24 hr by luciferase reporter gene assay; assay type: cell-based
T2 sequence (P49881 whole entry): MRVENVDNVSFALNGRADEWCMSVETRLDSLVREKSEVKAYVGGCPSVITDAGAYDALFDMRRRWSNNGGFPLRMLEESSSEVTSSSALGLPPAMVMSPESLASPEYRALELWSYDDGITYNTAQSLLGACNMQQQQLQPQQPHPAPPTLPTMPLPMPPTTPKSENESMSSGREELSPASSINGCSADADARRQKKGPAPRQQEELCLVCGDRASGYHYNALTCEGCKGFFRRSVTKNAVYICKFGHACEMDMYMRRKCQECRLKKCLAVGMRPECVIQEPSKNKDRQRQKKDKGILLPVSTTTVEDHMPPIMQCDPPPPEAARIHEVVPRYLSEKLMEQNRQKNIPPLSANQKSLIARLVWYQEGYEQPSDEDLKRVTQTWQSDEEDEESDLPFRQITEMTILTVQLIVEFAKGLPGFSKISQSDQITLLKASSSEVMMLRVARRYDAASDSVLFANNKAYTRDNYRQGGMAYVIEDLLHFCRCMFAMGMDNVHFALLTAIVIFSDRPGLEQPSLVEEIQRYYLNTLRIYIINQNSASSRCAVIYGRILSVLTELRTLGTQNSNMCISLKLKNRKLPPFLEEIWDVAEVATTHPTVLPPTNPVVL

Ecdysone receptor [3] = molecular target: T3, Ecdysone receptor (Drosophila melanogaster, UniProt P20153+P34021); experiment: Agonist activity at ecdysone receptor in Drosophila melanogaster B2 cells assessed as reduction in cell density
T3 sequence (P34021 whole entry): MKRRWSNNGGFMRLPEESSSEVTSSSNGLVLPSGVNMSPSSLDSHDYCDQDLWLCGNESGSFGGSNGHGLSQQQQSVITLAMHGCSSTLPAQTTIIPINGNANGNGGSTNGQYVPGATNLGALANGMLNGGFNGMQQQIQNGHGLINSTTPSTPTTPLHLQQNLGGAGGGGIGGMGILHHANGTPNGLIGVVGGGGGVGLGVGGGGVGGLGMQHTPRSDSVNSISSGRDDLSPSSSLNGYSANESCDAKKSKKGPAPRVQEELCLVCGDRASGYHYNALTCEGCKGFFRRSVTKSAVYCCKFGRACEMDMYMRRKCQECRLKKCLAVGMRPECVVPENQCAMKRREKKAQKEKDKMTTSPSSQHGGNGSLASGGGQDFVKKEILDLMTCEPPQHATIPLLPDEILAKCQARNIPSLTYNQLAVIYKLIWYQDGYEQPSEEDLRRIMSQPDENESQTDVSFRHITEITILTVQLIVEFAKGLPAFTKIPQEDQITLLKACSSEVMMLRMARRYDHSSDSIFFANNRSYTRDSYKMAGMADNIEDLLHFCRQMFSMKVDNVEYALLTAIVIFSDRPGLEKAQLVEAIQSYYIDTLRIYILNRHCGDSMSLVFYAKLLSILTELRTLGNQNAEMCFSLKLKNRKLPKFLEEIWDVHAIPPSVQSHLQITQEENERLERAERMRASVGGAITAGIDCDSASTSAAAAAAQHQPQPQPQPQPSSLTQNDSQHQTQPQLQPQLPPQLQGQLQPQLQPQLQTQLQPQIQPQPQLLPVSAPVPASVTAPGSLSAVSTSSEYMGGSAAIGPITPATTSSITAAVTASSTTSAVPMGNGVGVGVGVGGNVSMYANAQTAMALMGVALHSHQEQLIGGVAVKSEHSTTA
T3 sequence (P20153 whole entry): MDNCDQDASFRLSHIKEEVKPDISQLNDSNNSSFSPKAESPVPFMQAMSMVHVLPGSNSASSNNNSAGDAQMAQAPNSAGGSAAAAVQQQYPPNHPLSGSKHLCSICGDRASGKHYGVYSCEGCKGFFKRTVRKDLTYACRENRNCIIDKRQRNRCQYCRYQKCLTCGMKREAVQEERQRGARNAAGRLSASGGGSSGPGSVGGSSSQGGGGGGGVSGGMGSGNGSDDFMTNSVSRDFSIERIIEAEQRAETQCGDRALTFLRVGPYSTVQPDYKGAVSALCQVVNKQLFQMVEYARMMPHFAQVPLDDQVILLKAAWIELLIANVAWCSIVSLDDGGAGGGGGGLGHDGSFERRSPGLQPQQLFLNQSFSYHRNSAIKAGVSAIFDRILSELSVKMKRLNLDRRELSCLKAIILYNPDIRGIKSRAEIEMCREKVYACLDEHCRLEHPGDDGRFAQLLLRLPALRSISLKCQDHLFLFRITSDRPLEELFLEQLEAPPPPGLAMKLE

Ecdysone receptor [4] = molecular target: T3, Ecdysone receptor; experiment: (§2) Agonist activity at ecdysone receptor in Drosophila melanogaster S2 cells after 24 hr by luciferase reporter gene assay; assay type: cell-based
[5] = molecular target: T1, Ecdysone receptor (Drosophila melanogaster); experiment: as §2; assay type: cell-based
[6] = molecular target: T1, Ecdysone receptor (Drosophila melanogaster); experiment: Agonist activity at ecdysone receptor in Drosophila melanogaster S2 cells at 10 uM after 24 hr by luciferase reporter gene assay relative to 20-hydroxyecdysone; assay type: cell-based
[7] = molecular target: T4, Ecdysone receptor (Bombyx mori) (UniProt P49881); experiment: as §1; assay type: cell-based
T4 sequence (whole entry): T2 sequence (P49881 whole entry)

Ecdysone receptor [8] = molecular target: T3, Ecdysone receptor; experiment: Agonist activity at ecdysone receptor in Drosophila melanogaster Kc cells after 24 hr by luciferase reporter gene assay
[9] = Cytotoxicity against Drosophila melanogaster S2 cells at 10 to 100 uM after 24 hr by CellTiter assay; assay type: cell-based; details: s2, 24 h

SMILES	Efficacy [1] [%]	EC50 (Ecdysone receptor [2]) [µM]	EC50 (Ecdysone receptor [4]) [µM]	pEC50 [5]	also measured
CCc1ccc(C(=O)NN(C(=O)c2ccccc2Cl)C(C)(C)C)cc1	71	0.00575	15.5		EC50 (Ecdysone receptor [3]): 0.219 µM
CCCCN(C(=O)c1ccccc1)N(C(=O)c1ccccc1)C(C)(C)C		> 100		inactive	
CCCCCC(=O)N(NC(=O)c1ccc(CC)cc1)C(C)(C)C		2.82		inactive	
Cc1ccc(C(=O)NN(C(=O)c2cc(C)cc(C)c2)C(C)(C)C)cc1		0.012	11.2		Efficacy [6]: 46%
CC(C)(C)N(NC(=O)c1ccccc1)C(=O)c1ccccc1C(F)(F)F	63	0.631	33.9		EC50 (Ecdysone receptor [3]): 3.63 µM
CC(C)(C)N(NC(=O)c1ccccc1)C(=O)c1ccccc1I	52	0.105	91.2		EC50 (Ecdysone receptor [3]): 1.2 µM
CN(C(=O)c1ccccc1)N(C)C(=O)c1ccccc1		> 100		inactive	
CN(NC(=O)c1ccccc1)C(=O)c1ccccc1		> 100		inactive	
CCCCCCCC(=O)NN(C(=O)c1cc(C)cc(C)c1)C(C)(C)C		0.0977		inactive	
CCc1ccc(C(=O)NC2(C(=O)c3cc(C)cc(C)c3)CCCCC2)cc1			> 10		Efficacy [6]: 4%
CCCc1ccc(C(=O)NN(C(=O)c2ccccc2Cl)C(C)(C)C)cc1		0.00912	9.77		Efficacy [6]: 52%
Cc1ccccc1C(=O)N(NC(=O)c1ccccc1)C(C)(C)C	45	0.224	120		EC50 (Ecdysone receptor [3]): 3.8 µM
CCc1ccc(C(=O)NN(C(=O)C2CCCCC2)C(C)(C)C)cc1		9.33		inactive	
CCCCCCC(=O)N(NC(=O)c1ccccc1)C(C)(C)C		7.24		inactive	
CC1CCc2ccccc2N1C(=O)c1ccc(Cl)cc1 (centres undefined)				inactive	pEC50 [7]: inactive
Cc1cc(C)cc(C(=O)NN(C(=O)CCC(C)C)C(C)(C)C)c1		14.5		inactive	
Cc1ccc(NC2CCN(C(=O)c3ccc(Cl)cc3)CC2)cc1				inactive	pEC50 [7]: inactive
Cc1cc(C)cc(C(=O)C2(NC(=O)C(F)(F)F)CCCCC2)c1				inactive	
Cc1cc(C)cc(C(=O)N(NC(=O)c2ccc(Cl)cc2)C(C)(C)C)c1		0.0191	16.6		Efficacy [6]: 42%
CC(C)(C)N(NC(=O)c1ccc(-c2ccccc2)cc1)C(=O)c1ccccc1Cl					EC50 (Ecdysone receptor [8]): > 100 µM

SMILES	Efficacy [1] [%]	EC50 (Ecdysone receptor [2]) [µM]	EC50 (Ecdysone receptor [4]) [µM]	pEC50 [5]	also measured
CC(C)(C)N(NC(=O)c1ccccc1)C(=O)C1CCCCC1		46.8		inactive	
CC(C)(C)N(NC(=O)c1ccc(Cl)cc1)C(=O)c1ccccc1 [HALOFENOZIDE]	57	0.0871	7.76		Activity [9]: Non-toxic
Cc1ccc(NC2CCN(C(=O)c3ccc(Cl)cc3)c3ccccc32)cc1 (centres undefined)				inactive	pEC50 [7]: inactive
Cc1cc(C)cc(C(=O)NN(C(=O)CCCC(C)C)C(C)(C)C)c1		> 100		inactive	
CCCCCCC(=O)N(NC(=O)c1ccc(CC)cc1)C(C)(C)C		11.7		inactive	
CC(C)(C)N(NC(=O)c1cccc(Cl)c1)C(=O)c1ccccc1Cl	80	0.155	16.6		EC50 (Ecdysone receptor [3]): 1.2 µM
Cc1ccc(C(=O)NN(C(=O)c2ccccc2Cl)C(C)(C)C)cc1	79	0.0186	3.24		EC50 (Ecdysone receptor [3]): 0.219 µM
CCCCC(=O)NN(C(=O)c1cc(C)cc(C)c1)C(C)(C)C		1.86		inactive	
CC(C)(C)N(NC(=O)c1ccccc1Cl)C(=O)c1ccccc1Cl	48	0.331	105		EC50 (Ecdysone receptor [3]): 2.57 µM
Cc1ccc(NC2CC(C)N(C(=O)c3ccc(C(C)(C)C)cc3)c3ccc(C)cc32)cc1 (centres undefined)				inactive	pEC50 [7]: inactive
CC(C)(C)N(NC(=O)c1ccccc1)C(=O)c1ccccc1F	62	0.309	72.4		EC50 (Ecdysone receptor [3]): 6.17 µM
CCc1ccc(C(=O)NN(C(=O)CCC(C)C)C(C)(C)C)cc1		0.832		inactive	
Cc1ccc(N(C(=O)c2ccc(Cl)cc2)C2CC(C)N(C(=O)c3ccc(Cl)cc3)c3ccc(C)cc32)cc1 (centres undefined)				inactive	pEC50 [7]: inactive
CCCCCC(=O)N(NC(=O)c1cc(C)cc(C)c1)C(C)(C)C		8.71		inactive	
CC(C)(C)N(NC(=O)c1ccccc1)C(=O)c1ccccc1Cl		0.0759	8.51		Efficacy [6]: 57%
COc1ccccc1C(=O)N(NC(=O)c1ccccc1)C(C)(C)C	44	0.525	120		EC50 (Ecdysone receptor [3]): 3.8 µM
CC(C)(C)N(NC(=O)c1ccccc1)C(=O)c1ccccc1Br	55	0.17	81.3		EC50 (Ecdysone receptor [3]): 0.794 µM
CC(C)(C)N(NC(=O)c1ccccc1)C(=O)c1ccccc1[N+](=O)[O-]	86	0.224	15.5		EC50 (Ecdysone receptor [3]): 1.1 µM
CCCCCCCCCC(=O)NN(C(=O)c1cc(C)cc(C)c1)C(C)(C)C		1.55		inactive	
